Data from patent US20130123227A1, “NOVEL ORGANO-PALLADIUM COMPLEXES” (priority 2010, published 2013).

Assay: Seizure incidence in mice
Assay type: in vivo
Excerpt: The original Pd-lipoic acid complex provides a structure in which the palladium is safely sequestered, and which is also active in the lipoic acid binding site in mitochondrial complex I, thereby coupling to enzymatic charge transfer. […] To eliminate seizure activity, the G10 stage of the synthetic complex was further investigated and combined with various substances, until there were no seizures. This was ultimately achieved by complexing with zinc-amino acid complexes.

In the case of `C[C@@H](O)[C@H](N)C(=O)O.C[C@@H](O)[C@H](N)C(=O)O.[Zn]` [Zn-bis(threonine)], the seizures is reported as “modulates and inhibits the seizure potentials”.
